Measured values taken from US20210030843A1, “COMPOSITION AND METHOD FOR REDUCING CHEMOTHERAPY-INDUCED NEUTROPENIA VIA THE ADMINISTRATION OF PLINABULIN AND A G-CSF AGENT” (BEYONDSPRING PHARMACEUTICALS, INC., priority 2018, published 2021).
Several values for one entry are separate records, joined by “and”; a condition that tells them apart may be missing. Equal values may be shown once. Read-outs that look alike come from different tables or passages of the source.

Legend:
patients [1] = conditions: Plinabulin
[2] = tested on: Patients with solid tumors; assay: Plinabulin monotherapy in patients with solid tumors, laboratory parameters; format: in vivo, human; conditions: in the absence of chemotherapy
[3] = tested on: patients with solid tumors receiving docetaxel myelosuppressive chemotherapy; assay: Example 1: randomized, double blind study, plinabulin versus pegfilgrastim with docetaxel; format: in vivo, human; conditions: for change of neutrophil count through time (FIG. 1): after docetaxel 75 mg/m^2, pegfilgrastim 6 mg, plinabulin 5, 10, 20 mg/m^2
Experimental: A randomized, double blind study to evaluate duration of severe neutropenia with plinabulin versus pegfilgrastim in patients with solid tumors receiving docetaxel myelosuppressive chemotherapy was performed. Patients were randomly assigned to the following arms (with the respective sample sizes): Arm 1: Docetaxel (75 mg/m^2)+Pegfilgrastim (6 mg) (n=14); Arm 2: Docetaxel (75 mg/m^2)+Plinabulin (20 mg/m^2) (n=14); Arm 3: Docetaxel (75 mg/m^2)+Plinabulin (10 mg/m^2) (n=14); and Arm 4: Docetaxel (75 mg/m^2)+Plinabulin (5 mg/m^2) (n=13).

[4] = tested on: neutropenia caused by chemotherapies; assay: Animal model studies of chemotherapy-caused neutropenia; format: in vivo; conditions: docetaxel, cisplatin, adriamycin, cyclosphosphamide, topotecan, gemcitabine
[5] = tested on: patients (docetaxel-induced neutropenia); conditions: for proportion of patients with Grade 4 neutropenia: Cycle 1, docetaxel treatment alone vs addition of plinabulin to docetaxel, ANC <0.5×10^9/L, p<0.0003
[6] = tested on: NSCLC patients (pts) with a measurable lesion; assay: Phase 2 trial, addition of Plinabulin to Docetaxel in NSCLC patients; conditions: human, in vivo
patients [7] = conditions: G-CSF, cited from earlier work
patients [8] = conditions: most common adverse reactions; cited from earlier work
[9] = tested on: Patients with first line breast cancer receiving TAC; assay: Example 2: Phase 2 open label study, plinabulin and pegfilgrastim after TAC; format: in vivo, human; conditions: pegfilgrastim 6 mg
Experimental: A multicenter, randomized study, involving G-CSF and plinabulin was performed. The Phase 2 portion was randomized and open label. The decision to complete the Phase 2 portion of the study as open label was made to reduce the complexities of study conduct and to allow for the assessment, via QoL, of same-day plinabulin dosing (i.e on the day of chemotherapy dosing) versus next day dosing with G-CSF. Patients with first line breast cancer were enrolled in the study.
Patients received up to 4 cycles of a docetaxel/doxorubicin/cyclophosphamide based chemotherapy regimen, every 3 weeks (21 days). On Day 1 of Cycle 1, all patients receive docetaxel (75 mg/m^2), doxorubicin (50 mg/m^2), and cyclophosphamide (500 mg/m^2)-Taxotere, Adriamycin and cyclophosphamide (TAC).
During Cycles 2 to 4, the doxorubicin component may be omitted at the discretion of the investigator, i.e., TC can be administered instead of TAC.
The eligibility of all patients was determined during a 28-day screening period.
Phase 2 (Open Label): In Phase 2, patients were randomly assigned to one of the treatment arms, with the arm designation and planned intervention as shown in Table 2.
Patients have been randomized to receive TAC (or TC for Cycles 2 to 4)+pegfilgrastim or a combination of plinabulin and pegfilgrastim in each of Arms 1, 2, 3, and 4.
In Phase 2 (Open Label), Cycles 1 to 4 consisted of TAC (or TC for Cycles 2 to 4) administered IV on Day 1, every 21 days. Patients in Arms 2 and 3 received a single dose of plinabulin over 30 minutes (±5 minutes), 30 minutes after the end of the TAC (or TC for Cycles 2 to 4) infusion on Day 1. On Day 2 of each cycle (≥24 hours after completing chemotherapy) patients in […] received a single dose of pegfilgrastim (6.0 mg) (subcutaneous injection) in an open label treatment.
Docetaxel: Docetaxel was administered at a dose of 75 mg/m2. Administration was carried out with a 1-hour IV infusion per institutional protocol at the dose prescribed by this clinical study protocol (75 mg/m2). Dexamethasone (16 mg per day administered as 8 mg twice daily, or as per institution standard) was given on the day before, the day of (Day 1), and the day following docetaxel infusion (Day 2).
Doxorubicin: Doxorubicin was administered at a dose of 50 mg/m2. Doxorubicin is potentially cardiotoxic. Risk for doxorubicin cardiotoxicity increases with the cumulative lifetime dose of doxorubicin. At the doxorubicin dose and schedule in this study, patients received a cumulative doxorubicin dose of […] of body surface area, below the threshold for symptomatic cardiac dysfunction. Patients were monitored, per institutional standard, for doxorubicin cardiotoxicity.
Cyclophosphamide: Cyclophosphamide was administered at a dose of 500 mg/m^2.
TAC Regimen: All patients received 3 week cycles of TAC chemotherapy. In each cycle, doxorubicin (50 mg/m2) given as a 15-minute IV infusion was administered first, followed immediately by cyclophosphamide (500 mg/m2) given as a 30-minute IV infusion, and then by docetaxel (75 mg/m2) administered as 1-hour IV infusion (the infusion times stated are approximate).

[10] = Table 4, alone or with plinabulin 20 mg/m^2
[11] = cycle 1 after TAC, breast cancer, alone or with plinabulin 20 mg/m^2

## CC(C)(C)c1[nH]cnc1/C=c1\[nH]c(=O)/c(=C/c2ccccc2)[nH]c1=O [Plinabulin, (3Z,6Z)-3-Benzylidene-6-{[5-(2-methyl-2-propanyl)-1H-imidazol-4-yl]methylene}-2,5-piperazinedione]
Patients [1]
  Bone Pain (% of patients): <4%
  Hospitalization (% of patients): 6%
[2]
  changes in hematology or chemistry laboratory parameters: did not experience any clinically significant deleterious changes
[3]
  change of neutrophil count through time (FIG. 1): started to rise again on day 10
[3]; docetaxel 75 mg/m^2
  treating neutropenia induced by chemotherapeutic agent: effective
[3]; in vivo
  overshot of the ANC during recovery: prevented
[4]
  prevention of neutropenia caused by chemotherapies: prevent neutropenia
[5]; 20 mg/m^2 plinabulin
  Grade 3 transient hypertension, patients: 5%
[5]; 30 mg/m^2 plinabulin
  Grade 3 transient hypertension, patients: 20%
[5]
  proportion of patients with Grade 4 neutropenia: 4.6%
[5]; human, in vivo
  clinical sequelae associated with docetaxel-induced neutropenia (sepsis, infections, hospitalizations, docetaxel dose reductions, G-CSF use): reduced
[5]; patients receiving plinabulin
  bone pain, patients: 4%
[6]
  Immune-Related AEs (IR-AEs): without increasing

## CC(=O)O[C@@]12CO[C@@H]1C[C@H](O)[C@@]1(C)C(=O)[C@H](O)C3=C(C)[C@@H](OC(=O)[C@H](O)[C@@H](NC(=O)OC(C)(C)C)c4ccccc4)C[C@@](O)([C@@H](OC(=O)c4ccccc4)[C@H]21)C3(C)C [docetaxel, reference compound]
[5]
  proportion of patients with Grade 4 neutropenia: 33.3%

B1: G-CSF: Granulocyte-colony stimulating factor: compounds or factors that stimulate proliferation, differentiation, commitment and end cell functional activation of granulocytes (protein, UniProt P09919 31-207, looked up)
Granulocyte …: TPLGPASSLPQSFLLKCLEQVRKIQGDGAALQEKLVSECATYKLCHPEELVLLGHSLGIPWAPLSSCPSQALQLAGCLSQLHSGLFLYQGLLQALEGISPELGPTLDTLQLDVADFATTIWQQMEELGMAPALQPTQGAMPAFASAFQRRAGGVLVASHLQSFLEVSYRVLRHLAQP
Patients [7]
  Hospitalization (% of patients): 20%
Patients [7]; footnote mark 1
  Bone Pain (% of patients): >20%^1

B2: pegfilgrastim: colony-stimulating factor that acts on hematopoietic cells by binding to specific cell surface receptors (protein, chains of the INN, looked up)
chain: TPLGPASSLPQSFLLKCLEQVRKIQGDGAALQEKLCATYKLCHPEELVLLGHSLGIPWAPLSSCPSQALQLAGCLSQLHSGLFLYQGLLQALEGISPELGPTLDTLQLDVADFATTIWQQMEELGMAPALQPTQGAMPAFASAFQRRAGGVLVASHLQSFLEVSYRVLRHLAQP
modifications: PEG
Patients [8]
  bone pain, patients: 31%
  pain in an extremity, patients: 9%
[3]
  change of neutrophil count through time (FIG. 1): began to drop after 10 days
[9]; [10]
  Anti-cancer: No
  DSN (grade 3/4): Well over 1 day
[9]; [11]
  % neutropenia (grade 4): 57% and > 50%
  DSN (grade 3/4): 1.4 ± 1.0
  patients with NLR greater than 5 (FIG. 6): 76%
[9]; first 10 days of cycle 1, alone or with plinabulin 20 mg/m2
  ANC nadir of median ANC (FIG. 2): within the grade 3/4 neutropenia range
[9]; alone or with plinabulin 20 mg/m^2
  Median ANC Nadir: 0.47 10^9 cells/L
